This is an account of results in patent US7910091B2, “System for trapping flying insects with attractant lures” (Woodstream Corporation, priority 2002, dated 2011).

Data set [1] relates to A. albopictus. As to the kind of experiment: Hawaii field test of lactic acid lures in Mosquito Magnet traps, A. albopictus catch. The format is in vivo, Aedes albopictus. The following applies: w/CO2, average caught in 48 hours. On the procedure:
(§1) […] Sample vials containing lactic acid impregnated frits were replaced every 2 days to ensure measurement uniformity. Measured release rates were approximately 4.0 mg/hr to 20 mg/hr. Controls were run with a Professional trap device lacking a lactic acid lure. The number of mosquitoes retained in the catch bag of the insect trapping devices was quantitated for test sample and control runs.
(§2) The comparison between lactic acid/CO2 and CO2 only used as lures in Mosquito Magnet® Professional (PRO) and Liberty traps are shown in Table 8.

The conditions of data set [2]: cited from earlier work.
Data set [3] concerns mosquitoes. As to the kind of experiment: Hawaii field test of lactic acid lures in Mosquito Magnet traps, total mosquito catch. The data set is classed as in vivo, Culex quinquefasciatus Aedes albopictus, et al. The following applies: w/CO2, average caught in 48 hours. On the procedure:
as §1, §2

In data set [4] the test system is mosquitoes. As to the kind of experiment: China test, Mosquito Magnet Liberty traps, total catch of mosquitoes. The data set is classed as in vivo. The following applies: Wuhu. From the text:
(§3) Mosquito types found in China include Culex pipiens pallens (majority), A. albopictus, Anopheles sinensis (minority), and […] subalbatus (minority). […] The daily mosquito catch depended mainly on the seasonal distribution of mosquitoes. […] Mosquito Magnet® Liberty traps were used in this example.

The next data set deals with flying insects. As to the kind of experiment: Additional trap trials: lactic acid lures vs 1-octen-3-ol, Liberty trap with and without lure (FIG. 5). The format is in vivo. The following applies: for Insect capture counts (FIG. 5), in words: compared with CO2 only control / with lactic acid lures. From the text:
Also surprising were the results of a trial running a Mosquito Magnet® Liberty trap (American Biophysics Corporation, East Greenwich, R.I., USA) with and without lactic acid lures. […] The addition of a lactic acid lure increased the capture count to about 4,700 flying insects, a surprising enhancement over the effectiveness of the device using CO2 alone. The trial test data are graphically depicted in FIG. 5.

In data set [5] the test system is A. Albopictus. The data set is described as follows: China test, Mosquito Magnet Liberty traps, catch of A. albopictus. The format is in vivo. The settings on record: with CO2, Liberty trap, July 2002, Wuhu, catching in 12 hours.
Description: as §3

In the next data set the test system is Culex pipiens pallens. The data set is described as follows: China indoor test of Lurex. The data set is classed as in vivo. The settings on record: CO2 without Lurex, Hefei basement, July 2002, catching in 24 hours.
Description: as §3

Data set [6] in a line: Laboratory release rate test of lactic acid from impregnated frit cartridges in exhaust nozzle. The data set is classed as physicochemical. From the text: Packaging of the sample L-(+)-lactic acid solution was selected with the goal of maximizing efficient dispersal of the lactic acid in the CO2 exhaust plume of the insect trapping device. […] Each frit was impregnated with was 3.5 g to 4.5 g of liquid lactic acid. Release rate testing was initially performed under laboratory conditions to assess the dispersal characteristics of L-(+)-lactic acid from impregnated frit cartridges. The sample vial with its cap removed was placed in a “basket-style” housing having numerous apertures/openings to permit release of lactic acid vapors from the impregnated frit. The housing of the supplemental insect attractant element was inserted into the exhaust nozzle of an insect trapping device. Lactic acid release was measured at two temperatures for comparison purposes. Exhaust plume temperature was set at 87° F. and then 97°°F., accordingly. […] At a constant temperature, here 87°°F., the release rate of lactic acid decreased with time. […] The useful life of a frit cartridge impregnated with liquid L-(+)-lactic acid may vary depending upon the amount of attractant initially loaded into the cartridge, and the environmental conditions to which the cartridge is subjected. The ultimate use- or release-time of a given cartridge can be tailored to meet the release rate needs of a particular environmental condition. […] Longer periods of release are anticipated for polymeric formulations of attractant compositions.

For data set [7] the following is noted: cited from earlier work. This is another data set of the same source.
For data set [8] the following is noted: @ 25° C.; cited from earlier work.
The nature of data set [9]: Acute toxicity LD50 oral rat. The format is in vivo. From the text:
A particularly beneficial aspect of using biochemical lures to trap mosquitoes is the large margin of safety associated therewith, particularly when compared with traditional chemical attractants.

Where [10] appears, read: PRO trap, February to March 2002.
[11] abbreviates: Liberty trap, February to March 2002.
Setting [12] is: PRO trap, January 2002, higher release rate.
Where [13] appears, read: PRO trap, January 2002, listed as Liquid lactic acid.

SMILES strings stand for the structures.

For `C=CC(O)CCCCC` (stereo not shown) [1-octen-3-ol, reference compound], the “Catch of A. Albopictus” value in the data set with A. albopictus [1] (setting [10]) is 13; in the data set with A. Albopictus [5] it was 14. Besides, the LD50/oral/rat in [2] is 340 mg/kg. The “Total catch of mosquitoes” value stood at 92 in the data set on mosquitoes [3] (setting [10]) and 196 in the data set with mosquitoes [4] (with CO2, Liberty trap, July 2002, China, catching in 12 hours). For the same compound, the “Sensitivity of mosquitoes in China to the chemical compared to CO2, in words” value in the data set with mosquitoes [4] (Hefei, Shanghai, Liberty traps) was “do not seem significantly sensitive”. For the same compound, in the data set on flying insects, the “Insect capture counts (FIG. 5), in words” value is recorded as “quite inefficient”. Also, the Flying insects trapped result in the data set on flying insects (one trial, over a two-day period, CO2 plume generating devices) is on record as “less than 100”.

Consider `O=C=O` [CO2, carbon dioxide], for which the “Total catch of mosquitoes (Culex pipiens pallens)” value in the data set with Culex pipiens pallens is on record as 605.

Turning to `CC(O)C(=O)O` (stereo not shown) [Solid lactic acid], the “Catch of A. Albopictus” value in the data set on A. albopictus [1] (setting [11]) stood at 12.7; with A. albopictus [1] (setting [10]) it was 52; with A. albopictus [1] (PRO trap, January 2002) it was 30; in the data set with A. albopictus [1] (setting [12]), 116. Moreover, the “Total catch of mosquitoes” value in the data set with mosquitoes [3] (setting [11]) worked out at 2537; in the data set with mosquitoes [3] (setting [10]) it was 243; with mosquitoes [3] (PRO trap, January 2002) it was 136; in the data set on mosquitoes [3] (setting [12]), 384.

Take `CC(O)C(=O)O` (stereo not drawn) [FCC 88, L(+)-lactic acid, 2-hydroxy-propionic acid]: the “Catch of A. Albopictus” value in the data set with A. albopictus [1] (setting [13]) amounted to 26. In addition, the Release rate was 4.0 to 20 mg/h in data set [6] (87° F., time released 0-48 hrs, impregnated frit); 2.0 to 3.5 mg/h in [6] (87° F., time released 3-8 days, impregnated frit); 5.0 to 7.1 mg/h in [6] (97-100° F., 5-9th day, same sample tested before at 87° F.). Further, the “Estimated time of use of cartridge” value in [6] (cartridge of 3.5 g liquid L-(+)-lactic acid, average release rate 5 mg/hr to 10 mg/hr) is on record as 2 to 4 weeks. In addition, the “Total catch of mosquitoes” value in the data set on mosquitoes [3] (setting [13]) came to 313.5. Further, the LD50/dermal/rabbit in data set [7] is 2000 mg/kg. The pH in [8] was <2 @ 25 °C. Also, the “Times less toxic than 1-octen-3-ol” value in [9] was “about 11 times”. In addition, in the data set on flying insects (Liberty trap with CO2 plus lure, two-day period), the “Capture count of flying insects” value is on record as “about 4,700”. Also, the “Insect capture counts (FIG. 5), in words” value with flying insects was “substantially improve insect capture counts”.
